Assay results reported in the supplement of paper PMC10307832.

Legend:
Experiment in all cases: relative viability (nuclei count vs DMSO), 5 days (fraction); higher = more cells survive
Gemcitabine + AZD7762 = compound: Nc1ccn([C@@H]2O[C@H](CO)[C@@H](O)C2(F)F)c(=O)n1 [Gemcitabine] + NC(=O)Nc1cc(-c2cccc(F)c2)sc1C(=O)N[C@H]1CCCNC1 [AZD7762] (partner 0.2 µM)
In short: (§1)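 The day after seeding in 1536-well plates, lung cancer cell lines were treated by pin tool with a single drug, or with a fixed anchor-drug dose together with five library-drug doses (not always all listed) in √10 steps. After 5 days, a combined fix-and-stain solution (final 0.05% Triton X-100, 1% formaldehyde, 1 ug/ml Hoechst) was added. Nuclei counted on 4× images gave relative viability as treated counts over vehicle counts, reported as the median of duplicate plates.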

Gemcitabine + Pemetrexed = compound: Nc1ccn([C@@H]2O[C@H](CO)[C@@H](O)C2(F)F)c(=O)n1 [Gemcitabine] + Nc1nc2[nH]cc(CCc3ccc(C(=O)N[C@@H](CCC(=O)O)C(=O)O)cc3)c2c(=O)[nH]1 [Pemetrexed] (partner 0.2 µM)
In short: as §1

Gemcitabine + OSI-027 = compound: Nc1ccn([C@@H]2O[C@H](CO)[C@@H](O)C2(F)F)c(=O)n1 [Gemcitabine] + COc1cccc2cc(-c3nc([C@H]4CC[C@H](C(=O)O)CC4)n4ncnc(N)c34)[nH]c12 [OSI-027] (partner 0.5 µM)
In short: as §1

Gemcitabine + Foretinib = compound: Nc1ccn([C@@H]2O[C@H](CO)[C@@H](O)C2(F)F)c(=O)n1 [Gemcitabine] + COc1cc2c(Oc3ccc(NC(=O)C4(C(=O)Nc5ccc(F)cc5)CC4)cc3F)ccnc2cc1OCCCN1CCOCC1 [Foretinib] (partner 0.25 µM)
In short: as §1

| Cell Line | relative viability (Gemcitabine + AZD7762; first compound 0.001 µM) | relative viability (Gemcitabine + AZD7762; first compound 0.003162 µM) | relative viability (Gemcitabine + AZD7762; first compound 0.01 µM) | relative viability (Gemcitabine + AZD7762; first compound 0.03162 µM) | relative viability (Gemcitabine + AZD7762; first compound 0.1 µM) | relative viability (Gemcitabine + Pemetrexed; first compound 0.001 µM) | relative viability (Gemcitabine + Pemetrexed; first compound 0.003162 µM) | relative viability (Gemcitabine + Pemetrexed; first compound 0.01 µM) | relative viability (Gemcitabine + Pemetrexed; first compound 0.03162 µM) | relative viability (Gemcitabine + Pemetrexed; first compound 0.1 µM) | relative viability (Gemcitabine + OSI-027; first compound 0.001 µM) | relative viability (Gemcitabine + OSI-027; first compound 0.003162 µM) | relative viability (Gemcitabine + OSI-027; first compound 0.01 µM) | relative viability (Gemcitabine + OSI-027; first compound 0.03162 µM) | relative viability (Gemcitabine + OSI-027; first compound 0.1 µM) | relative viability (Gemcitabine + Foretinib; first compound 0.001 µM) | relative viability (Gemcitabine + Foretinib; first compound 0.003162 µM) | relative viability (Gemcitabine + Foretinib; first compound 0.01 µM) | relative viability (Gemcitabine + Foretinib; first compound 0.03162 µM) | relative viability (Gemcitabine + Foretinib; first compound 0.1 µM) |
| --- | --- | --- | --- | --- | --- | --- | --- | --- | --- | --- | --- | --- | --- | --- | --- | --- | --- | --- | --- | --- |
| NCI-H1793 | 0.778 | 0.211 | 0.0841 | 0.161 | 0.0995 | 1.09 | 0.98 | 0.406 | 0.139 | 0.141 | 0.236 | 0.286 | 0.205 | 0.159 | 0.116 | 0.71 | 0.652 | 0.437 | 0.141 | 0.136 |
| HCC-827 | 0.128 | 0.12 | 0.107 | 0.11 | 0.133 | 0.301 | 0.224 | 0.248 | 0.176 | 0.145 | 0.802 | 0.477 | 0.444 | 0.159 | 0.159 | 1 | 0.865 | 0.565 | 0.332 | 0.177 |
| HCC-78 | 0.477 | 0.303 | 0.186 | 0.214 | 0.277 | 0.92 | 0.879 | 0.895 | 0.9 | 0.896 | 0.325 | 0.312 | 0.263 | 0.211 | 0.229 | 0.502 | 0.44 | 0.416 | 0.267 | 0.241 |
| NCI-H2085 | 0.949 | 0.847 | 0.613 | 0.337 | 0.271 | 0.94 | 0.882 | 0.827 | 0.772 | 0.406 | 0.896 | 0.75 | 0.479 | 0.414 | 0.189 | 0.897 | 0.889 | 0.598 | 0.431 | 0.241 |
